Key:
HeLa cells = experiment: In vitro transfection of HeLa cells, luciferase activity; type: cell-based, human; conditions: charge ratios 1.0 to 10.0 nmol lipid/μg DNA
Protocol: This study was carried out at 4 different charge ratios: 1.0 or 4.0 or 6.0 or 10.0 nmol of lipid/μg of DNA. Each of these conditions was tested with and without fetal calf serum (A+ or − Serum a))
Culture of the cells: HeLa cells (American Type Culture Collection (ATCC) Manassas, Va., USA) derived from a human cervical epithelium carcinoma, were cultured in the presence of a medium of the MEM (“minimum essential medium”) type with addition of 2 mM L-glutamine, 50 units/ml of penicillin, and 50 units/ml of streptomycin. The medium and the additives were obtained from Gibco/BRL Life Technologies/InvitroGen (Gaithersburg, Md., USA). The cells were cultured in flasks at 37° C. and at 5% carbon dioxide in an incubator. […]
An aliquot of 10 μl of supernatant of the lysate centrifuged (12,000×g) for 5 minutes at 4° C. was measured with the Wallac Victor2 luminometer (1420 Multilabel counter).
The luciferase activity was assayed by the emission of light in the presence of luciferin, of coenzyme A and of ATP for 10 seconds and expressed relative to 2000 treated cells. The luciferase activity was thus expressed as Relative Light Unit (“RLU”) and normalized with the concentration of proteins in the sample obtained using a Pierce BCA kit (Rockford, Ill., USA).

DNA = experiment: Ethidium bromide fluorescence test of DNA compaction and release in acidic medium; type: physicochemical; conditions: for variation in fluorescence over time (EtBr) / release of DNA over time (increase in EtBr fluorescence): pH 5, 37° C.; for variation in fluorescence over time (EtBr): 0.4 nmol lipid/pg of DNA, DNA not completely compacted; for release of DNA over time (increase in EtBr fluorescence): 1.7 and 6.0 nmol lipid/μg of DNA, complete compaction
Protocol: This was easily shown by a fluorescence test with ethidium bromide (EtBr): the absence of fluorescence reflects the absence of free DNA, that means that the DNA was compacted.
The DNA was brought into contact with increasing quantities of control cationic lipid or of acid-sensitive compound A Syn or Trans, by mixing an equal volume of lipid solutions of different titers with the DNA solutions. Samples of 800 μl of DNA complexes having a concentration of […] were thus prepared in a sodium chloride solution at 150 mM with increasing quantities of control cationic lipid or of acid-sensitive compound A Syn or Trans.
At time t=0, 200 μl of buffer having a concentration of 0.1 mol/l at pH 5 were added to these samples and the samples were stored in an oven at 37° C. The fluorescence with ethidium bromide (EtBr) was measured over time (measurement at 20° C.) using a FluoroMax-2 (Jobin Yvon-Spex), with excitation and emission wavelengths of 260 nm and 590 nm respectively. The slit widths for excitation and for emission were set at 5 nm. The fluorescence value was recorded after addition of 3 μl of ethidium bromide at 1 g/l per ml of DNA/cationic lipid or DNA/acid-sensitive compound solution (at 0.01 mg of DNA/ml).

Row | variation in fluorescence over time (EtBr) (DNA) | release of DNA over time (increase in EtBr fluorescence) (DNA) | time of release of DNA after the addition of acid (DNA; pH 5 and 37° C.) | SMILES | transfection activity (HeLa cells)
1 | no significant variation in fluorescence | not the case |  | CCCCCCCCCCCCCCCCCCN(CCCCCCCCCCCCCCCCCC)C(=O)CNC(=O)CNCCCNCCCCNCCCN [control cationic lipid, H2N—(CH2)3—NH—(CH2)4—NH—(CH2)3—NH—CH2—CO-Gly-N[(CH2)17—CH3]2, reference compound] | high transfection activity
2 | no significant variation in fluorescence | released the DNA over time | a few hours | CCCCCCCCCCCCCCCCCCN(CCCCCCCCCCCCCCCCCC)C(=O)CCCOC1OCC(CNC(=O)CNCCCNCCCCNCCCN)O1 (stereo not drawn) [Compound A Syn, 4-{4-[(2-{3-[4-(3-amino-propylamino)butylamino]propyl-amino}acetylamino)methyl]-[1,3]dioxolan-2-yloxy}-N,N-dioctadecylbutyramide tetraacetate] | high transfection activity

From patent publication US7641914B2, “Acid-sensitive compounds, their preparation and uses” (Gencell, S.A., priority 2000, dated 2010)
